Measurements reported in US20120040966A1, “ANTI-VIRAL COMPOUNDS, TREATMENT, AND ASSAY” (priority 2008, published 2012).
Read-outs that look alike come from different tables or passages of the source.

What was measured:
[1] = test system: influenza strain A/VN/1203/2004 (H5N1); assay: microbe, parasite or virus in culture; format: cell-based, Influenza A virus (H5N1)
[2] = test system: Influenza virus strain A/CA/04/2009 (H1N1); assay: organism not typed; format: cell-based; conditions: MDCK, 72 h, read-out: H1N1 EC50 (@ 50% Via)
[3] = test system: Madin Darby Canine Kidney (MDCK) cells; assay: cells; format: cell-based; conditions: Canis lupus familiaris, MDCK, read-out: IC50 (toxicity)
[4] = Influenza A virus, H5N1, MDCK, 72 h, read-out: H5N1 EC50 (@ 50% Via)
[5] = Influenza A virus, H5N1, MDCK, 72 h, read-out: H5N1 EC50 (Inf Pt)
[6] = read-out: H5N1 EC50 (@ 50% Via)

| SMILES | EC50 [1, 4] [µM] | EC50 [1, 5] [µM] | EC50 [2] [µM] | IC50 [3] [µM] | EC50 [1, 6] [µM] | EC50 ([1]; read-out: H5N1 EC50 (Inf Pt)) [µM] |
| --- | --- | --- | --- | --- | --- | --- |
| COc1ccc(C2NC(=O)NC3=C2CCc2ccccc23)cc1OC (centres unmarked) [compound 22524] | 7.4 | 7 | 39 | > 50 | – | – |
| COc1ccc(C2NC(=O)NC3=C2CCc2ccccc23)cc1Br (centres unmarked) [compound 22405] | – | – | 0.425 | > 50 | – | – |
| Cc1ccc(C2NC(=O)NC3=C2CCCc2ccccc23)cc1 (centres unmarked) [compound 22083] | 28 | – | 9.5 | > 50 | – | – |
| O=C1NC2=C(COc3ccccc32)C(c2ccc(O)c(Br)c2)N1 (centres unmarked) [compound 22701] | 0.0262 | 0.021 | 1.6 | > 20 | 0.027 | 0.027 |
| COc1ccc(C2NC(=O)NC3=C2CCc2c(OC)cccc23)cc1Br (centres unmarked) [compound 22722] | > 0.062 | > 0.062 | 1.1 | > 0.062 | – | – |
| COc1cccc(C2NC(=O)NC3=C2COc2ccccc23)c1 (centres unmarked) [compound 22107] | > 50 | > 50 | 46 | > 50 | – | – |
| COc1ccc(C2NC(=O)NC3=C2CCc2ccccc23)cc1C (centres unmarked) [compound 22516] | – | – | 10 | > 50 | – | – |
| COc1ccc(C2NC(=O)NC3=C2CN(C(=O)CNC2CC2)c2ccccc23)cc1Br (centres unmarked) [compound 24718] | 9.7 | 9.7 | 8 | > 40 | – | – |
| O=C1NC2=C(CCc3ccccc32)C(c2ccc(C(F)(F)F)cc2)N1 (centres unmarked) [compound 22119] | 32.9 | 14.8 | 11.7 | > 50 | – | – |
| COc1ccc(C2NC(=O)NC3=C2CN(C(=O)CNCCO)c2ccccc23)cc1Br (centres unmarked) [compound 24717] | 2.1 | 2.1 | 5.6 | > 40 | – | – |
| CCOc1c(Br)cc(C2NC(=O)NC3=C2CCc2ccccc23)cc1Br (centres unmarked) [compound 22704] | > 40 | > 40 | > 40 | > 40 | – | – |
| COc1ccc(C2NC(=O)NC3=C2CN(C(=O)CSCC(O)CO)c2ccccc23)cc1Br (centres unmarked) [compound 25412] | 0.893 | 0.848 | 3.1 | > 40 | – | – |
| COc1cccc2c1CCC1=C2NC(=O)NC1c1ccc(C)c(C)c1 (centres unmarked) [compound 22113] | – | 2.4 | 16.8 | > 50 | – | 4.4 |
| COc1ccc(C2NC(=O)NC3=C2CN(C(=O)CSCCO)c2ccccc23)cc1Br (centres unmarked) [compound 25413] | 4.4 | 4.5 | 3.8 | > 40 | – | – |
| COc1ccc(C2NC(=O)NC3=C2CN(C(C)=O)c2ccccc23)cc1Br (centres unmarked) [compound 23099] | – | – | 0.0062 | > 40 | – | – |
| O=C1NC2=C(COc3ccccc32)C(c2ccc(F)c(Br)c2)N1 (centres unmarked) [compound 23098] | 1.2 | 1.3 | > 40 | > 40 | – | – |
| COc1ccc(C2NC(=O)NC3=C2CN(C(=O)CN2CCOCC2)c2ccccc23)cc1Br (centres unmarked) [compound 23272] | 9.1 | 8.7 | 3.5 | > 40 | – | – |
| O=C1NC2=C(C(c3ccc4c(c3)OCO4)N1)C(c1ccccc1)Oc1ccccc12 (centres unmarked) [compound 22421] | > 50 | > 50 | > 50 | > 50 | – | – |
| COc1ccc(C2NC(=O)NC3=C2COc2ccccc23)cc1C (centres unmarked) [compound 23210] | 0.332 | 0.307 | 3.1 | > 40 | – | – |

| SMILES | EC50 [1, 4] [µM] | EC50 [1, 5] [µM] | EC50 [2] [µM] | IC50 [3] [µM] | EC50 [1, 6] [µM] | EC50 ([1]; read-out: H5N1 EC50 (Inf Pt)) [µM] |
| --- | --- | --- | --- | --- | --- | --- |
| CCOc1ccc(C2NC(=O)NC3=C2CCc2ccccc23)cc1C (centres unmarked) [compound 22711] | 1.3 | 1.2 | 37 | > 50 | – | – |
| O=C1NC2=C(CCc3ccccc32)C(c2ccc([N+](=O)[O-])cc2)N1 (centres unmarked) [compound 22349] | 1.17 | 0.95 | 17.7 | > 50 | – | – |
| COc1c(Br)cc(C2NC(=O)NC3=C2CCc2ccccc23)cc1Br (centres unmarked) [compound 22703] | 38 | > 40 | > 40 | > 40 | – | – |
| COc1ccc(C2NC(=O)NC3=C2CN(C(=O)CN2CCC2)c2ccccc23)cc1Br (centres unmarked) [compound 25411] | 0.814 | 0.755 | 3.7 | > 40 | – | – |
| Cc1cccc(C2NC(=O)NC3=C2COc2ccccc23)c1 (centres unmarked) [compound 22109] | – | – | > 50 | > 50 | – | – |
| COc1ccc(C2NC(=O)NC3=C2CC(C)c2ccccc23)cc1Br (centres unmarked) [compound 22700] | – | – | 0.0985 | > 48 | – | – |
| O=C1NC2=C(CCc3ccccc32)C(c2cccc([N+](=O)[O-])c2)N1 (centres unmarked) [compound 22347] | 5.5 | 4.2 | > 50 | > 50 | – | – |
| COc1ccc(C2NC(=O)NC3=C2CN(C(=O)CNC(C)=O)c2ccccc23)cc1Br (centres unmarked) [compound 25350] | 0.045 | 0.044 | 0.622 | > 40 | – | – |
| COc1ccc(C2NC(=O)NC3=C2CCCc2ccccc23)cc1Br (centres unmarked) [compound 23096] | 0.242 | 0.28 | 0.153 | > 40 | – | – |
| COc1ccc(C2NC(=O)NC3=C2CCc2ncccc23)cc1Br (centres unmarked) [compound 23102] | 14.5 | – | > 40 | > 40 | – | – |
| COc1ccc(C2NC(=O)NC3=C2CN(C(=O)CN(C)C)c2ccccc23)cc1Br (centres unmarked) [compound 25012] | < 0.33 | 0.2 | 3 | > 40 | – | – |
| COc1ccc(C2NC(=O)NC3=C2CCc2c(C)cc(C)cc23)cc1Br (centres unmarked) [compound 22526] | > 48 | > 48 | > 50 | 6.9 | – | – |
| COC(=O)N1CC2=C(NC(=O)NC2c2ccc(OC)c(Br)c2)c2ccccc21 (centres unmarked) [compound 25408] | 0.208 | 0.201 | 9.7 | > 40 | – | – |
| COc1cccc2c1CCC1=C2NC(=O)NC1c1ccc(C)cc1 (centres unmarked) [compound 22123] | 18.3 | 10.9 | > 50 | > 50 | – | – |
| COc1ccc(C2NC(=O)NC3=C2CN(C(=O)CSCCN(C)C)c2ccccc23)cc1Br (centres unmarked) [compound 25410] | 0.714 | 0.669 | 15.6 | – | – | – |
| COc1nc(-c2ccc3c(c2)OCO3)c2c(n1)-c1ccccc1CC2 [compound 22402] | 8.4 | 5.2 | – | > 50 | 14.5 | 5.7 |
| COc1ccc(C2NC(=O)NC3=C2CN(C(=O)Cn2ccnc2)c2ccccc23)cc1Br (centres unmarked) [compound 25010] | < 0.316 | 0.082 | – | > 40 | – | – |
| COc1ccc(C2NC(=O)NC3=C2CNc2ccccc23)cc1Br (centres unmarked) [compound 23100] | 0.637 | 0.718 | – | > 40 | – | – |
| O=C1NC2=C(CCc3ccccc32)C(c2ccc(O)c(Br)c2)N1 (centres unmarked) [compound 22709] | – | – | 0.118 | > 53 | – | – |

| SMILES | EC50 [1, 4] [µM] | EC50 [1, 5] [µM] | EC50 [2] [µM] | IC50 [3] [µM] | EC50 [1, 6] [µM] | EC50 ([1]; read-out: H5N1 EC50 (Inf Pt)) [µM] |
| --- | --- | --- | --- | --- | --- | --- |
| Oc1nc(-c2ccc3c(c2)OCO3)c2c(n1)-c1ccccc1OC2c1ccccc1 (centres unmarked) [compound 22422] | > 50 | > 50 | – | > 50 | – | – |
| COc1cccc2c1CCc1c(-c3ccc(C)cc3)nc(O)nc1-2 [compound 22088] | – | – | – | > 50 | 15.4 | – |
| COc1ccc(-c2nc(O)nc3c2Cc2ccccc2-3)cc1 [compound 22128] | > 50 | > 50 | – | > 50 | – | – |
| COc1ccc(C2NC(=O)NC3=C2CSc2ccccc23)cc1Br (centres unmarked) [compound 22412] | – | – | 0.351 | > 50 | – | – |
| CC1CC2=C(NC(=O)NC2c2ccc3c(c2)OCO3)c2ccccc21 (centres unmarked) [compound 22342] | 0.72 | 0.39 | – | > 50 | – | – |
| COc1cc(C2NC(=O)NC3=C2CSc2ccccc23)ccc1F (centres unmarked) [compound 22519] | – | 6.5 | – | > 50 | – | – |
| COc1ccc(C2NC(=O)NC3=C2CN(C(=O)c2ccncc2)c2ccccc23)cc1Br (centres unmarked) [compound 23208] | > 40 | > 40 | – | > 40 | – | – |
| COc1ccc(C2NC(=O)NC3=C2COc2ccccc23)cc1 (centres unmarked) [compound 22129] | > 50 | > 50 | – | > 50 | – | – |
| O=C1NC2=C(CCc3ccccc32)C(c2ccc(F)c(Br)c2)N1 (centres unmarked) [compound 22409] | – | – | 1.4 | > 50 | – | – |
| Cc1cccc(C2NC(=O)NC3=C2CCc2ccccc23)c1 (centres unmarked) [compound 22081] | – | 0.55 | – | > 50 | – | 0.52 |
| O=C1NC2=C(CCc3ccccc32)C(c2ccc3ccccc3c2)N1 (centres unmarked) [compound 22346] | ≥ 55 | > 50 | – | > 50 | – | – |
| O=C1NC2=C(CCc3ccccc32)C(c2cccnc2)N1 (centres unmarked) [compound 22086] | > 50 | – | – | > 50 | – | – |
| COc1cccc2c1CCc1c(-c3ccc(C)c(C)c3)nc(O)nc1-2 [compound 22114] | 13.5 | – | – | > 50 | 9.1 | – |
| O=C1NC2=C(CCc3ccccc32)C(c2ccc3c(c2)OCCO3)N1 (centres unmarked) [compound 22343] | 45.7 | 31.9 | – | > 50 | – | – |
| O=C1NC2=C(Cc3ccccc32)C(c2ccc3c(c2)OCO3)N1 (centres unmarked) [compound 22126] | > 50 | > 50 | – | > 50 | – | – |
| COc1ccc(C2NC(=O)NC3=C2COc2ccccc23)cc1Br (centres unmarked) [compound 22521] | – | – | 4 | > 50 | – | – |
| Cc1cc(C2NC(=O)NC3=C2CCc2ccccc23)ccc1O (centres unmarked) [compound 22706] | – | – | 4.8 | > 50 | – | – |
| COc1cc(-c2nc(O)nc3c2CCc2ccccc2-3)cc(OC)c1OC [compound 22116] | > 50 | > 50 | – | > 50 | – | – |
